Source: US20080318970A1, “Treatment of Infectious Diseases” (priority 2004, published 2008)

Columns and labels:
HIV-1 strain HTLV-IIIB = assay: Inhibition of HIV-1 replication in MT4 cells (MTT assay); format: cell-based; conditions: Human immunodeficiency virus 1, IIIB, 144 h; compound alone; MT4 cells, six days
Experimental: Each experiment was repeated in tripleduplicate. MIC values represent the mean values of two separate experiments.
The HIV-1 strain HTLV-IIIB were propagated in H9 cells at 37° C., 5% CO2 using RPMI 1640 with 10% heat-inactivated foetal calf serum (FCS) and antibiotics (growth medium). Culture supernatant was filtered ([…]), aliquotted, and stored at −80° C. until use. The HIV-1 strain was obtained from NIH AIDS Research and Reference Program.
(§1) Compounds were examined for possible antiviral activity against strain 111B of HIV-1 using MT4 cells as target cells. MT4 cells were incubated with virus (0.005 MOI) and growth medium containing the test dilutions of compound(s) for six days in parallel with virus-infected and uninfected control cultures without compound added. Expression of HIV in the cultures was indirectly quantified using the MTT assay as previously described. Compounds mediating less than 30% reduction of HIV expression were considered without biological activity. Compounds were tested in parallel for cytotoxic effect in uninfected MT4 cultures containing the test dilutions of compound as described above. Cultures for test of both antiviral activity and cytotoxic effect were set up in tripleduplicates, […] per culture in micro titre plates.
The 50% inhibitory concentration was determined by interpolation from the plots of percent inhibition versus concentration of compound.
EC50 is defined as the effective concentration that inhibits 50% of viral production, 50% of viral infectivity, or 50% of the virus-induced cytopathic effect.

[1] = Cytotoxic effect in uninfected MT4 cultures; format: cell-based; conditions: human, uninfected MT4 cells; compound alone; uninfected MT4
Experimental: as §1
CC50 is defined as the inhibitory concentration that reduces cellular growth or viability of uninfected cells by 50%.

EC50 (HIV-1 strain HTLV-IIIB): 50 nM
Structure (SMILES): Cc1cn([C@H]2C[C@H](N=[N+]=[N-])[C@@H](CO)O2)c(=O)[nH]c1=O [AZT, 3′-Azido-3′-deoxythymidine, reference compound]
CC50 at 6 days [1]: > 3000 nM
